Test results taken from patent EP0838474B1, “PEPTIDE THAT INHIBITS BLOOD TRIGLYCERIDE LEVEL RISE AND BLOOD TRIGLYCERIDE LEVEL RISE INHIBITOR CONTAINING SAID PEPTIDE AS ACTIVE INGREDIENT” (MG PHARMA INC., priority 1995, dated 1997).
Residues, ends and D or L forms follow the SMILES beside them. No end group written: not given here.

Test system: TG level in blood
Experiment: Serum TG elevation inhibiting action at the time of in vivo lipid loading (olive oil)
Design: species or system albino mice
Conditions: for Ratio of Increase in Blood TG Levels (%): blood collected after 3 hours; for ID^50: Dose (mg/mouse) exhibiting 50% inhibition: oral, with 250 mg olive oil, blood TG after 3 hours; for Specific Activity: relative to the proteolysate (= 1)
Protocol: Serum TG elevation inhibiting action at the time of in vivo lipid loading was examined on the three peptides of the invention inhibiting elevations of TG levels in blood (i.e., the peptide having the amino acid sequence of SEQ ID NO: 1 and the peptides Val-Thr-Leu and Val-Tyr-Pro synthesized by the method described in Example 4). Healthy albino mice (5-10 weeks old; body weight: about 20-30 g) were used in this experiment. To each mouse, 250 mg of olive oil and an aqueous solution of the above peptide were administered orally. Three hours thereafter, blood was collected under anesthesia with Nembutal. After separation of the blood, the TG level in blood was determined.

Compound	Ratio of Increase in Blood TG Levels (%) (dose 0.1 mg/mouse oral with 250 mg olive oil)	Ratio of Increase in Blood TG Levels (%) (dose 0.2 mg/mouse oral with 250 mg olive oil)	Ratio of Increase in Blood TG Levels (%) (dose 1.0 mg/mouse oral with 250 mg olive oil)	Ratio of Increase in Blood TG Levels (%) (dose 2.5 mg/mouse oral with 250 mg olive oil)	Ratio of Increase in Blood TG Levels (%) (dose 5.0 mg/mouse oral with 250 mg olive oil)	ID^50: Dose (mg/mouse) exhibiting 50% inhibition	Specific Activity	Ratio of Increase in Blood TG Levels (%) (dose 1x10^-3 mg/mouse oral with 250 mg olive oil)	Ratio of Increase in Blood TG Levels (%) (dose 1x10^-4 mg/mouse oral with 250 mg olive oil)	Ratio of Increase in Blood TG Levels (%) (dose 4x10^-4 mg/mouse oral with 250 mg olive oil)	Ratio of Increase in Blood TG Levels (%) (dose 4x10^-5 mg/mouse oral with 250 mg olive oil)
CC(C)C[C@H](NC(=O)[C@@H](NC(=O)[C@@H](N)C(C)C)[C@@H](C)O)C(=O)O [Val-Thr-Leu, H-Val-Thr-Leu-OH] (H-Val-Thr-Leu-OH)	30%	33%	73%	76%	79%	0.43 mg/mouse	65	–	–	–	–
LVVYPWT [SEQ ID NO: 1, Leu-Val-Val-Tyr-Pro-Trp-Thr]	–	–	–	–	–	5.6x10^-4 mg/mouse	50000	65%	33%	33%	14%
